Measurements published in publication PMC9888311, “Neonatal NET-Inhibitory Factor improves survival in the cecal ligation and puncture model of polymicrobial sepsis by inhibiting neutrophil extracellular traps” (Frontiers in Immunology, 2023).
Where no end group is shown, it is not given here.

What was measured:
Format in all cases: in vivo, mouse (outbred Swiss Webster)
[1] = tested on: CLP model of polymicrobial sepsis; assay: Survival over 6 days after cecal ligation and puncture (CLP)
Description: Mice were anesthetized with 3% isoflurane in an induction chamber, and anesthesia was maintained by use of inhalation via nose cone. Sepsis was induced by cecal ligation and puncture (CLP) as previously described ([30], [31]). […] The animals received subcutaneous sterile isotonic saline (0.5 mL) for fluid resuscitation immediately after surgery. Sham-operated mice were subjected to identical procedures, except that ligation and puncture of the cecum was omitted. Survival of mice subjected to CLP or sham injury was determined daily for 6 days. Twenty-four and 48 hours after CLP, all animals were scored for clinical illness severity as previously described ([32]) by an examiner blinded to treatment arm. In this assessment, higher scores reflect increased illness severity with non-surviving mice receiving a score of 10. These mice were included in the statistical analysis. In additional experiments, mature Swiss-webster mice were treated with sham surgery or CLP procedure. […]
For our survival studies, animals were randomly assigned to one of five groups: (a) sham-operated group (Sham); (b) DMSO vehicle treatment group (CLP + DMSO (0.003%/5% Dextrose/H2O, IV); (c) nNIF treatment group ([…], 0.003%/5% Dextrose/H2O, IV); (d) scrambled peptide control treatment group (CLP + nNIF-SCR, 1 mg/kg, 0.003%/5% Dextrose/H2O, IV); and (e) antibiotic treatment group ([…]). Groups a-d received their respective treatment at 4 and 10 hours after CLP. Group e received two doses of meropenem at 4 and 10 hours after CLP and then daily injections for 6 days. In another set of survival studies, mice were treated with nNIF or nNIF-SCR (1 mg/kg, IV) 4 and 10 hours after CLP in combination therapy with a suboptimal dose of meropenem (8 mg/kg, IP) also given 4 and 10 hours after CLP and then once daily. […] Both aliquots of blood and peritoneal fluid were used for the following analyses: leukocyte cell count and differential, bacterial CFU studies, NET quantitation using MPO-DNA complex ELISA, live cell imaging, and multiplex cytokine profiling with specific ELISA confirmation.

[2] = tested on: neutrophil extracellular traps (NETs), peritoneal fluid; assay: Peritoneal fluid NET formation (confocal live cell imaging, MPO-DNA complex ELISA); conditions: 24 hours after CLP; nNIF 1 mg/kg IV or meropenem 25 mg/kg IP at 4 and 10 hours after CLP; compared to vehicle, scrambled peptide and meropenem groups; N=5-9
Description: We evaluated mouse NET formation via live cell imaging with confocal microscopy as previously described ([12]). Sham mice and CLP animals from all experimental groups were euthanized by CO2 inhalation and the peritoneal fluid was collected. An aliquot of 100 μL of the peritoneal fluid was placed on glass coverslips coated with poly-L-lysine for 1 hour at 37°C in 5% CO2/95% air. NET formation was assessed using cell-permeable (SYTO Green, Molecular Probes) and cell-impermeable (SYTOX Orange, Molecular Probes) DNA fluorescent stains. Using a FV3000 1X81 confocal microscope and FluoView software (Olympus) with 20X and 60X objectives, we obtained z-series images over a range of 20 μm with a 1 μm step size for each field. We processed these images using FluoView (Olympus), Photoshop (Adobe), and ImageJ (NIH) software. An in-house ELISA was used to quantify MPO-DNA complexes in plasma and peritoneal fluid from sham and CLP mice 24 hours after the surgical procedure ([24], [27]). Briefly, after overnight coating with anti-MPO capture antibody in calcium carbonate coating buffer (2 µg/ml; 0400-0002, Bio-Rad) at 4°C, a 96-well plate was blocked with 2.5% bovine serum albumin in PBS for 2 hours at room temperature. The plate was subsequently washed, before incubating for 90 minutes at room temperature with 10% peritoneal fluid in blocking buffer. […]

neutrophil CD11b = assay: Peritoneal fluid neutrophil CD11b expression (flow cytometry); conditions: 24 hours after CLP; nNIF 1 mg/kg or meropenem 25 mg/kg at 4 and 10 hours; compared to scrambled peptide control-treated CLP mice
Description: Twenty-four hours after CLP or sham surgery, total white blood cell and differential neutrophil counts were determined both in whole blood samples collected from orbital vein using heparinized capillaries tubes and peritoneal fluid by washing with 3 mL of PBS, respectively. Then, samples were incubated with CD45 APC-Cy7 (Biolegend), CD11b PE-Cy7 (EBioscience), Ly6G BV510 (Biolegend), and CD16/CD32 (Fc-block, EBioscience) for 30 minutes at 37 °C. Thirty minutes later, cells were washed, fixed, and ran on a Beckman Coulter Cytoflex located in the University of Utah Flow Cytometry Core.

[3] = tested on: aerobic bacteria in peritoneal fluid; assay: Peritoneal fluid aerobic bacterial colony forming units; conditions: 24 hours after CLP; nNIF 1 mg/kg or meropenem 25 mg/kg at 4 and 10 hours; serial dilution, LB-agar, 37°C 24 hours; N=5-8
Description: (§1) Peritoneal fluid cytokines were analyzed using a mouse Cytokine/Chemokine Panel I Multiplex Array (Millipore Sigma catalog# HCYTMAG60-PMX41) according to manufacturer’s instructions on a Luminex 200 instrument. Bacterial counts in whole blood and peritoneal lavage were determined 24 hours after CLP. Briefly, peritoneal fluid and blood samples were collected, serially diluted, plated on LB-agar dishes, and incubated at 37°C for 24 hours. The number of bacterial colonies was counted and expressed as CFU/mL.

[4] = tested on: aerobic bacteria in whole blood; assay: Whole blood aerobic bacterial colony forming units; conditions: for peripheral blood bacterial CFUs at 24 hours: 24 hours after CLP, nNIF 1 mg/kg or meropenem 25 mg/kg at 4 and 10 hours, serial dilution, LB-agar, 37°C 24 hours, N=5-8
Description: as §1, with “Bacterial counts in whole blood and peritoneal lavage were determined 24 hours after CLP.” left out

## KFNKPFVFLMIEQNTKSPLFMGKVVNPTQ-OH [nNIF, neonatal NET-Inhibitory Factor]
[1]; nNIF 0.1 mg/kg IV, 2 doses at 4 and 10 hours after CLP, N=10, vehicle (DMSO) control 0%
  6-day survival: 30%
[1]; nNIF 0.5 mg/kg IV, 2 doses at 4 and 10 hours after CLP, N=10, vehicle (DMSO) control 0%
  6-day survival: 70%
[2]
  peritoneal fluid NET formation (MPO-DNA complexes, confocal microscopy): reduced NET formation qualitatively and quantitatively
Neutrophil CD11b
  neutrophil CD11b expression in peritoneal fluid: significantly decreased neutrophil CD11b expression
[3]
  peritoneal fluid bacterial CFUs at 24 hours: higher CFUs
[4]
  peripheral blood bacterial CFUs at 24 hours: higher CFUs
[4]; 96 hours after CLP, nNIF 1 mg/kg, elevated at 24 hours, meropenem comparator 8 mg/kg, N=3-4
  whole blood bacterial CFUs at 96 hours: returned to meropenem alone treatment levels

## C[C@@H](O)[C@H]1C(=O)N2C(C(=O)O)=C(S[C@@H]3CN[C@H](C(=O)N(C)C)C3)[C@H](C)[C@H]12 [meropenem, reference compound]
[1]; sub-optimal meropenem 8 mg/kg IP at 4 and 10 hours after CLP then once daily
  6-day survival: 40%
[2]
  peritoneal fluid NET formation (MPO-DNA complexes, confocal microscopy): equivalent between the vehicle and meropenem arms
Neutrophil CD11b
  neutrophil CD11b expression in peritoneal fluid: no decrease
[3]
  peritoneal fluid bacterial CFUs at 24 hours: statistically significant decrease
[4]
  peripheral blood bacterial CFUs at 24 hours: statistically significant decrease
